ChEMBL document CHEMBL4177672 (Bioorg Med Chem Lett, 2017)
≈ marks a conversion by molar mass, not a printed value.

What follows are compounds tested on Mycobacterium tuberculosis (assay: Growth inhibition of Mycobacterium tuberculosis H37Rv under aerobic condition after 4 days by MABA method). Settings: 96 h.
Type: functional
With `COc1ncccc1C(c1cc2cc(Br)ccc2nc1OC)C(O)(CCN(C)C)c1cccc2c1OCO2` (mixture of isomers) the MIC90 was 0.24 µg/mL.

The compounds below were run on Homo sapiens (assay: Terminal half life in healthy human subjects dosed as single 400 mg dose on Day 1 followed by PK sampling (Days 1 to 14)). Settings: in vivo.
Type: ADME, organism-based
With `COc1nc2ccc(Br)cc2cc1[C@@H](c1ccccc1)[C@@](O)(CCN(C)C)c1cccc2ccccc12` [BEDAQUILINE] the beta t1/2 was 5 to 6 months.

The compounds below were run on Vero (assay: Cytotoxicity against African green monkey Vero cells after 72 hrs by MTS-PMS assay). Settings: Chlorocebus sabaeus.
Type: cell-based
For `COc1nc2ccc(Br)cc2cc1[C@@H](c1ccc(N(C)C)nc1)[C@@](O)(CCN(C)C)c1cccc(F)c1`, the IC50 was over 10 µg/mL. Compound `COc1cc([C@H](c2cc3cc(Br)ccc3nc2OC)[C@@](O)(CCN(C)C)c2cccc(F)c2)cnc1OC` has an IC50 of over 10 µg/mL. `COc1nc2ccc(Br)cc2cc1[C@@H](c1ccnc(OC)c1OC)[C@@](O)(CCN(C)C)c1cccc(C)c1` was tested, and the IC50 was over 10 µg/mL. For `CCSc1ccc([C@H](c2cc3cc(Br)ccc3nc2OC)[C@@](O)(CCN(C)C)c2cccc(F)c2)cn1`, the IC50 was over 10 µg/mL. `COc1nc2ccc(Br)cc2cc1[C@@H](c1cc(C)c(C)s1)[C@@](O)(CCN(C)C)c1cccc(F)c1` showed an IC50 of over 10 µg/mL. `COc1nc2ccc(Br)cc2cc1[C@@H](c1cncc(C)c1)[C@@](O)(CCN(C)C)c1cccc(F)c1` was tested, and the IC50 was over 10 µg/mL. For `COc1nc2ccc(Br)cc2cc1[C@@H](c1cccnc1N(C)C)[C@@](O)(CCN(C)C)c1cccc(F)c1`, the IC50 was over 10 µg/mL. `COc1nc2ccc(Br)cc2cc1[C@@H](c1ccnc(OC)c1OC)[C@@](O)(CCN(C)C)c1cccc(OC(F)F)c1` showed an IC50 of over 10 µg/mL. Compound `COc1nc2ccc(Br)cc2cc1[C@@H](c1ccccc1)[C@@](O)(CCN(C)C)c1cccc2ccccc12` [BEDAQUILINE] has an IC50 of over 10 µg/mL. `COc1nc2ccc(Br)cc2cc1[C@@H](c1ccnc(OC)c1OC)[C@@](O)(CCN(C)C)c1cccc(C#N)c1` gave an IC50 of over 10 µg/mL.

The compounds below were run on Mycolicibacterium smegmatis (assay: Antitubercular activity against Mycobacterium smegmatis ATCC 607 incubated at 37 degC for 7 days by resazurin dye based fluorometry). Settings: ATCC 607, 168 h.
Type: functional
In the case of `COc1nc2ccc(Br)cc2cc1C(c1ccoc1)C(O)(CCN(C)C)c1ccccc1` (racemic), the IC90 is reported as 0.06 to 1.57 µg/mL (≈ 0.121 to 3.17 µM).
